Key:
[1] = test system: PC3 (prostate) cancer cells; assay: In vitro cytotoxic activity (MTT) assay, PC3; format: cell-based; settings: Homo sapiens, PC-3, exposed for 96 hours, read-out: IC50, inhibition of cell proliferation, PC3 (prostate)
Method: (§1) Compounds 1-12 were screened for their in vitro cytotoxic activity utilizing a 3-(4,5-dimethyl-thiazol-2-yl)-2,5-diphenyltetrazolium bromide (MTT) assay against selected cancer human cell lines consisting of PC3 (prostate), HCT116 (colon), A375 (melanoma), H1299 (lung), MIAPaCa-2 (pancreas), HL60 (leukemia), MCF7 (breast), MDA-MB-231 (breast) (T. Mosmann, J. Immunol. Meth., 1983, 65, 55-63). The cells were cultured at 37° C. in RMPI1640 medium supplemented with 10% fetal bovine serum, 50 IU/mL penicillin, and 50 μg/mL streptomycin in a 5% CO2 incubator. All cells were sub-cultured 3 times/week by trypsinisation. Viable cells were seeded and allowed to adhere for 12 h before a test drug was added in 96-well plates at an initial density of 1.0×10^5 cells/mL. Tumour cell lines were separately exposed to various concentrations of the tested compounds followed by incubation at a temperature of 37° C. during 96 h inside a medium of fresh RMPI 1640. Cells were subsequently incubated at 37° C. using MTT at 0.5 mg/mL during 4 h. After removal of supernatant, formazan crystals were dissolved in isopropanol and the optical density was measured at 570 nm. CX-4945 was used as a positive control.

[2] = test system: HCT116 (colon) cancer cells; assay: In vitro cytotoxic activity (MTT) assay, HCT116; format: cell-based; settings: Homo sapiens, HCT-116, exposed for 96 hours, read-out: IC50, inhibition of cell proliferation, HCT116 (colon)
Method: as §1

[3] = test system: A375 (melanoma) cancer cells; assay: In vitro cytotoxic activity (MTT) assay, A375; format: cell-based; settings: Homo sapiens, A-375, exposed for 96 hours, read-out: IC50, inhibition of cell proliferation, A375 (melanoma)
Method: as §1

[4] = test system: H1299 (lung) cancer cells; assay: In vitro cytotoxic activity (MTT) assay, H1299; format: cell-based; settings: Homo sapiens, NCI-H1299, exposed for 96 hours, read-out: IC50, inhibition of cell proliferation, H1299 (lung)
Method: as §1

[5] = test system: MIAPaCa-2 (pancreas) cancer cells; assay: In vitro cytotoxic activity (MTT) assay, MIAPaCa-2; format: cell-based; settings: Homo sapiens, MIA PaCa-2; MIAPaCa-2 cells, exposed for 96 hours; read-out: IC50, inhibition of cell proliferation, MIAPaCa-2 (pancreas)
Method: as §1

[6] = test system: HL60 (leukemia) cancer cells; assay: In vitro cytotoxic activity (MTT) assay, HL60; format: cell-based; settings: Homo sapiens, HL-60, exposed for 96 hours, read-out: IC50, inhibition of cell proliferation, HL60 (leukemia)
Method: as §1

[7] = test system: MCF7 (breast) cancer cells; assay: In vitro cytotoxic activity (MTT) assay, MCF7; format: cell-based; settings: Homo sapiens, exposed for 96 hours, read-out: IC50, inhibition of cell proliferation, MCF7 (breast)
Method: as §1

[8] = test system: MDA-MB-231 (breast) cancer cells; assay: In vitro cytotoxic activity (MTT) assay, MDA-MB-231; format: cell-based; settings: Homo sapiens; MDA-MB-231 cells, exposed for 96 hours; read-out: IC50, inhibition of cell proliferation, MDA-MB-231 (breast)
Method: as §1

[9] = target: T1, recombinant human CK2 (RRββ-holoenzyme) (Homo sapiens, UniProt P68400); assay: CK2 kinase assay (radiometric, [γ-33P]ATP); format: biochemical; settings: final ATP 15 μM, 10 min at 30° C., eight concentrations; read-out: IC50, protein kinase CK2 activity
T1 construct: purchased Millipore
Method: CK2 Kinase Assay was conducted using the protocol as described in Pierre F. et al; J. Med. Chem. 2011, 54, 635-654. The tested compounds in aqueous solution were added at a volume of 10 μL to a reaction mixture comprising 10 μL of assay dilution buffer (ADB; 20 mM MOPS, pH 7.2, 25 mM β-glycerol phosphate, 5 mM EGTA, 1 mM sodium orthovanadate, and 1 mM dithiothreitol), 10 μL of substrate peptide (RRRDDDSDDD, dissolved in ADB at a concentration of 1 mM), 10 μL of recombinant human CK2 (RRββ-holoenzyme, 25 ng dissolved in ADB; Millipore). Reactions were initiated by the addition of 10 μL of ATP solution (90% 75 mMMgCl2, 75 μM ATP (final ATP concentration:15 μM) dissolved in ADB; 10% [γ-33P] ATP (stock 1 mCi/100 μL; 3000 Ci/mmol (Perkin-Elmer) and maintained for 10 min at 30° C. The reactions were quenched with 100 μL of 0.75% phosphoric acid and then transferred to and filtered through a phosphor cellulose filter plate (Millipore). After washing each well five times with 0.75% phosphoric acid, the plate was dried under vacuum for 5 min and, following the addition of 15 μL of scintillation fluid to each well, the residual radioactivity was measured using a Wallac luminescence counter. The IC50 values were derived from eight concentrations of test inhibitors.

T1 sequence (P68400 whole entry): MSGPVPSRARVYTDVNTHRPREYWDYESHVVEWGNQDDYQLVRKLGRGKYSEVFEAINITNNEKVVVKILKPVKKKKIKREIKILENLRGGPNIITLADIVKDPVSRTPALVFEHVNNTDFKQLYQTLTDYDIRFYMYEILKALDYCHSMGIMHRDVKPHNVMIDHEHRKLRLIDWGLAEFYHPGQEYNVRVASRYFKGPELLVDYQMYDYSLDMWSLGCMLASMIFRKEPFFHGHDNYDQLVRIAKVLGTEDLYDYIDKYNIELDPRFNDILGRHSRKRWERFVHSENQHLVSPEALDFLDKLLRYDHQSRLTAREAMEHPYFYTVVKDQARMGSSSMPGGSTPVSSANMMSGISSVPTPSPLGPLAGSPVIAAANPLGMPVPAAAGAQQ
T1 sequence (P67870 whole entry partner): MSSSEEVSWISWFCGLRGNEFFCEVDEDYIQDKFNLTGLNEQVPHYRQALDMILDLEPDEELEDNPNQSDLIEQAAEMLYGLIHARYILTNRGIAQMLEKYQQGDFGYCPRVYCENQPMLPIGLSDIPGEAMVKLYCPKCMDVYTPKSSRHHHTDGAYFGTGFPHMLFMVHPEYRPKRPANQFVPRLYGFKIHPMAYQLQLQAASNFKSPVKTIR

- IC50 [9]: 36 nM
SMILES: O=C(O)c1ccc2c3cnccc3n(C(=O)c3cccc(Cl)c3)c2c1 [Compound (7), 5-(3-chlorobenzoyl)-5H-pyrido[4,3-b]indole-7-carboxylic acid]
- IC50 [1]: 900 nM
- IC50 [2]: 1600 nM
- IC50 [3]: 4400 nM
- IC50 [4]: 1100 nM
- IC50 [5]: 2300 nM
- IC50 [6]: 1700 nM
- IC50 [7]: 5200 nM
- IC50 [8]: 3600 nM

Source: patent US11851430B1, “Pyrido[4,3-B]indole-7-carboxylic acid compounds as CK2 inhibitors” (KING FAISAL UNIVERSITY, priority 2023, dated 2023)
